# Tested on: rabbit anti-PAH antisera (anti-analyte antibody on paramagnetic particles)
# Test: not given
# Settings: concentration giving mean absorbance 0.5 times that of the Diluent/Zero Standard; competitive immunoassay, 450 nm
row,Structure (SMILES),50% B/Bo [ppb]
1,c1ccc2c(c1)cc1ccc3cccc4ccc2c1c34 [benzo(a)pyrene],6.9
2,c1ccc2c(c1)Cc1ccccc1-2 [fluorene],35.2
3,c1ccc2c(c1)-c1cccc3cccc-2c13 [fluoranthene],4.7
4,"c1ccc2c(c1)ccc1ccccc12 [phenanthrene, reference compound]",16.5
5,c1ccc2cc3ccccc3cc2c1 [anthracene],11.0
6,"c1ccc2c(c1)-c1ccc3ccc4cccc5cc-2c1c3c45 [indeno(1,2,3-c,d)pyrene]",27.2
7,c1cc2ccc3cccc4ccc(c1)c2c34 [pyrene],7.7
8,c1ccc2c(c1)ccc1c3ccccc3ccc21 [chrysene],7.8
9,c1ccc2c(c1)-c1cccc3c1c-2cc1ccccc13 [benzo(b)fluoranthene],54.2
10,c1ccc2cc3c(cc2c1)-c1cccc2cccc-3c12 [benzo(k)fluoranthene],524
11,"c1ccc2cc3c(ccc4ccccc43)cc2c1 [1,2 benzoanthracene]",28.4

# Same assay, conditions: estimated as the dose needed to generate a B/Bo of 90%
row,Structure (SMILES),LDD (least detectable dose) [ppb]
1,c1ccc2c(c1)cc1ccc3cccc4ccc2c1c34 [benzo(a)pyrene],0.50
2,c1ccc2c(c1)Cc1ccccc1-2 [fluorene],1.65
3,c1ccc2c(c1)-c1cccc3cccc-2c13 [fluoranthene],0.32
4,"c1ccc2c(c1)ccc1ccccc12 [phenanthrene, reference compound]",0.70
5,c1ccc2cc3ccccc3cc2c1 [anthracene],0.54
6,"c1ccc2c(c1)-c1ccc3ccc4cccc5cc-2c1c3c45 [indeno(1,2,3-c,d)pyrene]",0.78
7,c1cc2ccc3cccc4ccc(c1)c2c34 [pyrene],0.20
8,c1ccc2c(c1)ccc1c3ccccc3ccc21 [chrysene],0.40
9,c1ccc2c(c1)-c1cccc3c1c-2cc1ccccc13 [benzo(b)fluoranthene],0.91
10,c1ccc2cc3c(cc2c1)-c1cccc2cccc-3c12 [benzo(k)fluoranthene],0.77
11,"c1ccc2cc3c(ccc4ccccc43)cc2c1 [1,2 benzoanthracene]",0.77

# Tested on: not listed separately
# Test: Study of Standard Stability (B/Bo as a function of time of storage)
# Settings: after 200 days of storage at 4° C. (FIG. 2)
# Method: The vials were then capped with Teflon coated caps and crimped. The vials were then separated into five groups. Each group was then placed at a different temperature (-20° C., 2°-8° C., 20°-25° C., 37° C. and 50° C.) in an upright position. Standards were tested for B/Bo at specified intervals by assaying each standard level in duplicate for each temperature. The results were then graphed as a function of time (x) versus B/Bo(y) by temperature level.
row,apparent increase in B/Bo on storage [%],Structure (SMILES)
1,25,"c1ccc2c(c1)ccc1ccccc12 [phenanthrene, reference compound]"

# Reference: patent US5780250A, “Immunoassay standards for polyaromatic hydrocarbon detection” (Strategic Diagnostics, Inc., priority 1996, dated 1998)
